Measured values reported in patent US9512111B2, “N-sulfonylated tetrahydroquinolines and related bicyclic compounds for inhibition of RORγ activity and the treatment of disease” (Lycera Corporation, priority 2010, dated 2016).

Target: T1, RORγ-LBD (Homo sapiens, UniProt P51449)
T1 construct: HIS-tagged RORγ-LBD was recombinantly expressed in SF9 cells; made in house; host or cells: SF9 cells (baculovirus); unpurified lysate
T1 sequence (P51449 269-508 limits assumed): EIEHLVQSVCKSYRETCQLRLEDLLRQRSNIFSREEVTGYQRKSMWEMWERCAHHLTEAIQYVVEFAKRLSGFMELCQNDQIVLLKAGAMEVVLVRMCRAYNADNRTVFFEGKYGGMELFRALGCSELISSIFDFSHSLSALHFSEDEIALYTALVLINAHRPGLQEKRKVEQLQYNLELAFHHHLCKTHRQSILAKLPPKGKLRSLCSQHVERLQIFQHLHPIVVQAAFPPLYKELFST
Assay: RORγ-Ligand Binding Domain TR-FRET Assay
Format: biochemical
Procedure: HIS-tagged RORγ-LBD was recombinantly expressed in SF9 cells using a baculovirus expression system. The protein was not purified. Cells were lysed and the lysate was used as a source for RORγ-LBD for the assay. A 1:80 dilution of RORγ-LBD lysate in assay buffer (25 mM HEPES pH 7.0, 100 mM NaCl, 0.01% Tween, 0.1% BSA) was prepared and 5 μL was added to each well (RORγ-LBD final concentration ˜10 nM). Control wells received lysate from SF9 cells not expressing RORγ-LBD.
Compounds to be tested were diluted to 100× final test concentration in DMSO and further diluted to 4× final test concentration using assay buffer to provide the test compound mixture. An aliquot (5 μL) of the test compound mixture was added to each well.
A 4× stock of biotinylated-LXXLL peptide from SRC1-2 (Biotin-[…]) was prepared in assay buffer and a 5 μL aliquot added to each well (450 nM final concentration). A 4× solution of europium tagged anti-HIS antibody (2 nM final concentration) and APC conjugated streptavidin (60 nM final concentration) were prepared and a 5 μL aliquot added to each well.
The final assay mixture was incubated for 4 hours to overnight, and the fluorescence signal was measured on an Envision plate reader: (Excitation filter=340 nm; APC emission=665 nm; Europium emission=615 nm; dichroic mirror=D400/D630; delay time=100 μs, integration time=200 μs).
IC50 values for test compounds were calculated from the quotient of the fluorescence signal at 665 nm divided by the fluorescence signal at 615 nm using GraphPad Prism software.

Compound | IC50 (benzoxazines, Table 9) [µM] | IC50 (Table 8, indazoles) [µM]
O=C(Cc1ccc(F)cc1)Nc1ccc2c(c1)N(S(=O)(=O)c1ccc(F)c(F)c1)C[C@@H](CO)O2 [VI-74] | < 15 | 
Cc1cc(F)ccc1S(=O)(=O)n1ncc2ccc(NC(=O)c3ccc(F)cc3Cl)cc21 [Compound V-77] |  | < 15
COc1ccc(F)cc1S(=O)(=O)n1ncc2ccc(NC(=O)c3c(F)cccc3Cl)cc21 [Compound V-100] |  | < 15
Cc1cccc(S(=O)(=O)n2nc(Br)c3ccc(NC(=O)c4c(F)cccc4Cl)cc32)c1 [Compound V-52] |  | < 15
C[C@H]1CN(S(=O)(=O)c2ccc(F)cc2)c2cc(NC(=O)Cc3ccncc3)ccc2O1 [VI-130] | < 15 | 
Cc1nn(C(F)F)cc1S(=O)(=O)n1ncc2ccc(NC(=O)Cc3cc(F)cc(F)c3)cc21 [Compound V-14] |  | < 15
CC(C)(C)c1cccc(S(=O)(=O)n2ncc3ccc(NC(=O)Cc4ccc(Cl)cc4)cc32)c1 [Compound V-28] |  | < 15
O=C(Nc1ccc2cnn(S(=O)(=O)c3cccc(C(F)(F)F)c3)c2c1)c1c(F)cccc1C(F)(F)F [Compound V-51] |  | < 15
C[C@H]1CN(S(=O)(=O)c2ccc(F)cc2)c2cc(NC(=O)c3c(Cl)cccc3C(F)(F)F)ccc2O1 [VI-20] | < 15 | 
O=C(Nc1ccc2cnn(S(=O)(=O)c3cc(Cl)sc3Cl)c2c1)c1c(F)cccc1Cl [Compound V-82] |  | < 15
O=C(Nc1ccc2cnn(S(=O)(=O)c3cccc(OC(F)(F)F)c3)c2c1)c1c(Cl)cccc1C(F)(F)F [Compound V-41] |  | < 15
COc1cccc(S(=O)(=O)n2ncc3ccc(NC(=O)c4c(Cl)cccc4Cl)cc32)c1 [Compound V-73] |  | < 15
COc1ccc(S(=O)(=O)n2ncc3ccc(NC(=O)c4c(F)cccc4Cl)cc32)cc1F [Compound V-164] |  | < 15
COc1cccc(S(=O)(=O)n2ncc3ccc(NC(=O)c4c(F)cccc4F)cc32)c1 [Compound V-62] |  | < 15
Cc1ccc(F)cc1S(=O)(=O)n1ncc2ccc(NC(=O)c3c(F)cccc3Cl)cc21 [Compound V-165] |  | < 15
Cc1ccccc1CS(=O)(=O)n1ncc2ccc(NC(=O)c3c(F)cccc3Cl)cc21 [Compound V-119] |  | < 15
COC(=O)c1ccc(S(=O)(=O)n2ncc3ccc(NC(=O)c4c(F)cccc4Cl)cc32)o1 [Compound V-151] |  | < 15
Cc1nn(C)c(C)c1S(=O)(=O)n1ncc2ccc(NC(=O)c3c(F)cccc3Cl)cc21 [Compound V-90] |  | < 15
O=C(Cc1ccc(F)cc1)Nc1ccc2c(c1)N(S(=O)(=O)c1ccc(Cl)cc1)C[C@@H](CO)O2 [VI-53] | < 15 | 
Cc1c(Cl)cccc1S(=O)(=O)n1ncc2ccc(NC(=O)c3c(F)cccc3Cl)cc21 [Compound V-145] |  | < 15
O=C(Cc1ccc(Cl)cc1)Nc1ccc2c(c1)N(S(=O)(=O)c1ccc(F)c(F)c1)C[C@@H](CO)O2 [VI-71] | < 15 | 

Compound | IC50 (benzoxazines, Table 9) [µM] | IC50 (Table 8, indazoles) [µM]
O=C(Nc1ccc2cnn(S(=O)(=O)c3cccc(Cl)c3)c2c1)c1c(Cl)cccc1Cl [Compound V-72] |  | < 15
Cc1ccc(S(=O)(=O)n2ncc3ccc(NC(=O)c4c(F)cccc4Cl)cc32)cc1F [Compound V-125] |  | < 15
Cc1cccc(S(=O)(=O)n2ncc3ccc(NC(=O)Cc4cnc(C)s4)cc32)c1 [Compound V-5] |  | < 15
Cc1cccc(S(=O)(=O)n2ncc3ccc(NC(=O)c4c(F)cccc4Cl)cc32)c1 [Compound V-124] |  | < 15
O=C(Nc1ccc2cnn(S(=O)(=O)c3cccc(OC(F)F)c3)c2c1)c1c(F)cccc1Cl [Compound V-85] |  | < 15
COc1cccc(S(=O)(=O)n2ncc3ccc(NC(=O)Cc4cnc(C)s4)cc32)c1 [Compound V-7] |  | < 15
COc1ccc(C)cc1S(=O)(=O)n1ncc2ccc(NC(=O)c3c(F)cccc3Cl)cc21 [Compound V-78] |  | < 15
O=C(Nc1ccc2cnn(S(=O)(=O)c3ccc(Cl)cc3)c2c1)c1c(F)cccc1Cl [Compound V-156] |  | < 15
O=C(Nc1ccc2cnn(S(=O)(=O)C3CCOCC3)c2c1)c1c(F)cccc1Cl [Compound V-79] |  | < 15
O=C(Nc1ccc2cnn(S(=O)(=O)c3cccc(OC(F)F)c3)c2c1)c1c(F)cccc1C(F)(F)F [Compound V-45] |  | < 15
N#Cc1cccc(S(=O)(=O)N2C[C@@H](CO)Oc3ccc(NC(=O)Cc4ccc(Cl)cc4)cc32)c1 [VI-56] | < 15 | 
O=C(Nc1ccc2cnn(S(=O)(=O)c3ccc(Cl)s3)c2c1)c1c(F)cccc1Cl [Compound V-96] |  | < 15
N#Cc1nn(S(=O)(=O)c2cccc(C(F)(F)F)c2)c2cc(NC(=O)c3c(F)cccc3Cl)ccc12 [Compound V-9] |  | < 15
CC(=O)c1cccc(S(=O)(=O)n2ncc3ccc(NC(=O)Cc4ccc(Cl)cc4)cc32)c1 [Compound V-30] |  | < 15
O=C(Cc1ccc(F)c(F)c1)Nc1ccc2cnn(S(=O)(=O)c3cccc(OC(F)F)c3)c2c1 [Compound V-18] |  | < 15
COC(=O)c1ccc(S(=O)(=O)n2ncc3ccc(NC(=O)c4c(F)cccc4Cl)cc32)cc1 [Compound V-109] |  | < 15
O=C(Nc1ccc2c(C(O)CO)nn(S(=O)(=O)c3cccc(C(F)(F)F)c3)c2c1)c1c(F)cccc1Cl (stereo not drawn) [Compound 10, 2-Chloro-N-[3-(1,2-dihydroxyethyl)-1-(3-trifluoromethylbenzenesulfonyl)-1H-indazol-6-yl]-6-fluorobenzamide] |  | < 15
O=C(Nc1ccc2cnn(S(=O)(=O)Cc3ccccc3)c2c1)c1c(F)cccc1Cl [Compound V-155] |  | < 15
O=C(Nc1ccc2cnn(S(=O)(=O)c3cccnc3)c2c1)c1c(F)cccc1Cl [Compound V-94] |  | < 15
Cc1nn(C(F)F)cc1S(=O)(=O)n1ncc2ccc(NC(=O)Cc3ccc(F)c(F)c3)cc21 [Compound V-17] |  | < 15
CNCC1CN(S(=O)(=O)c2ccc(F)cc2)c2cc(NC(=O)c3c(F)cccc3Cl)ccc2O1 (stereo not drawn) [Compound 14] | < 15 | 

Compound | IC50 (benzoxazines, Table 9) [µM] | IC50 (Table 8, indazoles) [µM]
O=C(Nc1ccc2cnn(S(=O)(=O)c3ccc(F)c(C(F)(F)F)c3)c2c1)c1c(F)cccc1Cl [Compound V-81] |  | < 15
Cc1c(S(=O)(=O)n2ncc3ccc(NC(=O)c4c(F)cccc4Cl)cc32)cnn1C [Compound V-110] |  | < 15
C[C@H]1CN(S(=O)(=O)c2ccc(F)cc2)c2cc(NC(=O)C3(c4ccc(Cl)cc4)CCCC3)ccc2O1 [VI-132] | < 15 | 
COc1ccc(S(=O)(=O)n2ncc3ccc(NC(=O)c4c(F)cccc4Cl)cc32)cc1 [Compound V-157] |  | < 15
O=C(Nc1ccc2cnn(S(=O)(=O)c3cccc(OC(F)(F)F)c3)c2c1)c1c(F)cccc1Cl [Compound V-54] |  | < 15
O=C(Nc1ccc2cnn(S(=O)(=O)c3cccc(OC(F)(F)F)c3)c2c1)c1c(F)cccc1C(F)(F)F [Compound V-50] |  | < 15
C[C@H]1CN(S(=O)(=O)c2ccc(F)cc2)c2cc(NC(=O)c3c(F)cccc3C(F)(F)F)ccc2O1 [VI-19] | < 15 | 
N#Cc1ccccc1S(=O)(=O)n1ncc2ccc(NC(=O)c3c(F)cccc3Cl)cc21 [Compound V-87] |  | < 15
O=C(Nc1ccc2cnn(S(=O)(=O)Cc3cccc(Cl)c3)c2c1)c1c(F)cccc1Cl [Compound V-86] |  | < 15
O=C(Nc1ccc2cnn(S(=O)(=O)c3cccc(OC(F)F)c3)c2c1)c1c(Cl)cccc1C(F)(F)F [Compound V-35] |  | < 15
COc1cccc(S(=O)(=O)n2ncc3ccc(NC(=O)Cc4ccc(F)cc4)cc32)c1 [Compound V-26] |  | < 15
CCCNCC1CN(S(=O)(=O)c2ccc(F)cc2)c2cc(NC(=O)c3c(F)cccc3Cl)ccc2O1 (stereo not drawn) [VI-33] | < 15 | 
Cc1cc(C)cc(S(=O)(=O)n2ncc3ccc(NC(=O)c4c(F)cccc4Cl)cc32)c1 [Compound V-123] |  | < 15
O=C(Nc1ccc2cnn(S(=O)(=O)c3cccc(OC(F)(F)F)c3)c2c1)c1c(F)cccc1F [Compound V-63] |  | < 15
Cc1ncc(CC(=O)Nc2ccc3cnn(S(=O)(=O)c4cccc(Cl)c4)c3c2)s1 [Compound V-6] |  | < 15
O=C(Nc1ccc2cnn(S(=O)(=O)c3cc(F)cc(C(F)(F)F)c3)c2c1)c1c(F)cccc1Cl [Compound V-161] |  | < 15
Cc1cccc(S(=O)(=O)n2ncc3ccc(NC(=O)c4c(F)cccc4F)cc32)c1 [Compound V-60] |  | < 15
O=C(Nc1ccc2cnn(S(=O)(=O)c3ccc(F)c(C(F)(F)F)c3)c2c1)c1c(Cl)cccc1C(F)(F)F [Compound V-33] |  | < 15
Cc1cccc(S(=O)(=O)n2ncc3ccc(NC(=O)c4c(F)cccc4C(F)(F)F)cc32)c1 [Compound V-46] |  | < 15
O=C(Nc1ccc2cnn(S(=O)(=O)c3cccc(OC(F)F)c3)c2c1)c1c(Cl)cccc1Cl [Compound V-68] |  | < 15
O=C(Nc1ccc2cnn(S(=O)(=O)c3ccc(F)c(C(F)(F)F)c3)c2c1)c1c(F)cccc1C(F)(F)F [Compound V-44] |  | < 15
